Experimental data as given in US7847063B2 (Sanwa Kagaku Kenkyusho Co., Ltd., priority 2003, dated 2010).
Ends that are not written are not given here.

Assays:
[1] = test system: Langerhans islets; experiment: Insulin secretion-promoting activity in isolated Langerhans islets; format: cell-based, ICR mouse; details: 16.7 mM glucose, 37° C. 30 min, FIG. 13
Description: Langerhans islets were extracted from ICR mouse pancreas with collagenase, 2 to 3 Langerhans islets were placed per well of 24-well plates, and cultured overnight.

[2] = biological target: T1, human GLP-1 receptor (Homo sapiens, UniProt P43220); experiment: Cyclic AMP production activity in CHO-K1 cells expressing human GLP-1 receptors; format: cell-based; details: compared with native GLP-1; 37° C. 30 min; FIG. 7
T1 construct: expressed in transfected cells; host or cells: Chinese hamster ovary CHO-K1 cells
T1 sequence (P43220 24-463): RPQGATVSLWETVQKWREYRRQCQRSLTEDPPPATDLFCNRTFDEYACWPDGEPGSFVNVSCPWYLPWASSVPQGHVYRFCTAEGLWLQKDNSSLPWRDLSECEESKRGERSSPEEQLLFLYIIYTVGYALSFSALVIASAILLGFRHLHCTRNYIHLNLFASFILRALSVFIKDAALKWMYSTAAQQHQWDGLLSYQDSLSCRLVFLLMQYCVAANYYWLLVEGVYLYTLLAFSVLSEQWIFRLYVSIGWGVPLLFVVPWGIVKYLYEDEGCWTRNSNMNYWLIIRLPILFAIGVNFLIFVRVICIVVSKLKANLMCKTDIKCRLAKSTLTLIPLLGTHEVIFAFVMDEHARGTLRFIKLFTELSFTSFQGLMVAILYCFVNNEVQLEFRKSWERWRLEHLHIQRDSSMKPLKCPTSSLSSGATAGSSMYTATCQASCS
Description: 10 μl of 5N hydrochloric acid was added to the buffer to stop the incubation.

[3] = biological target: T2, trypsin (Sus scrofa, UniProt P00761); details: pH 7.8
T2 sequence (P00761 9-231): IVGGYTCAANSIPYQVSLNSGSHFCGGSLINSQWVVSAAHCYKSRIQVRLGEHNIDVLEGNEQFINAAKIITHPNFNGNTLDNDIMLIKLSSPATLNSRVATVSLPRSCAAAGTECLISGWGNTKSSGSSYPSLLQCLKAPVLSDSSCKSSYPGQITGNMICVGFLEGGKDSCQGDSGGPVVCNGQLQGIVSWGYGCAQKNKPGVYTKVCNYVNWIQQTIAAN
Description: 5 μl of 500 μg/ml trypsin solution (Promega: Cat. No. V5113) was added to 100 μl of this solution, and reacted at 37° C. for 1 hour. The reaction was stopped by adding 1200 μl of 71.5% ethanol (final 65%). The supernatant was collected by centrifugation at 15,000 rpm at 4° C. for 5 min, and evaporation was carried out. The dried solids were dissolved in distilled water and used for measuring activity.
The reaction was stopped by adding 1200 μl of 71.5% ethanol (final 65%). The supernatant was collected by centrifugation of 15,000 rpm at 4° C. for 5 min and evaporation was carried out. The dried solids were dissolved in distilled water and used for measuring the activity.

[4] = Hypoglycemic effect in oral glucose tolerance test (OGTT) by subcutaneous administration; format: in vivo; details: mice fasted overnight, 1 g/kg glucose orally, peptide 5, 20 μg/kg dorsal subcutaneously; FIG. 14
Description: Physiological saline was administered to the control group. Before loading glucose and 20, 60, 120 min after loading, blood was collected chronologically from subocular venous plexus, to measure blood glucose level. […] Moreover, the action continued until 120 min after the administration (FIG. 15).

[5] = biological target: DPP-IV (Sus scrofa, UniProt P22411)
DPP-IV, sequence (P22411 whole entry): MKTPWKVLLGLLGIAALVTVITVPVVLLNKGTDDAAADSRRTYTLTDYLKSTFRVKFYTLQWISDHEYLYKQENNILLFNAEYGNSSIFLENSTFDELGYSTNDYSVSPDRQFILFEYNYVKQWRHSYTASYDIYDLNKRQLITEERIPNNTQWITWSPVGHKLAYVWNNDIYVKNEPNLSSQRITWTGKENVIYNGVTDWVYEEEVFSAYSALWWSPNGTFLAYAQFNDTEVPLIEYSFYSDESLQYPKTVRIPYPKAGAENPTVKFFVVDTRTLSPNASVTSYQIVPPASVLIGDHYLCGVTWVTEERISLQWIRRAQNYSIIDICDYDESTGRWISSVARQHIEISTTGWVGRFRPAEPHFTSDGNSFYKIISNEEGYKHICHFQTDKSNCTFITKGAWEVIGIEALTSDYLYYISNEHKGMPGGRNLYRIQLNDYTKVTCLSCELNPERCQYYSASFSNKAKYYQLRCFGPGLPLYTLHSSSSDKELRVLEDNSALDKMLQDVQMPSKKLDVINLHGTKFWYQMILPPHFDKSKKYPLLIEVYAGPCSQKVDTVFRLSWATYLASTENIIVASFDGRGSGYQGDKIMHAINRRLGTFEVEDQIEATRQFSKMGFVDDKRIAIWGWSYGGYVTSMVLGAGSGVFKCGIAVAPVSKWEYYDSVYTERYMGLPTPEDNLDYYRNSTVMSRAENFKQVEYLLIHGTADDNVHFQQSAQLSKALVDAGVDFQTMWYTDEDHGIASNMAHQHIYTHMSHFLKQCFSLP

[6] = biological target: T2, trypsin
Description: To this diluent, 6 μl of 83 μg/ml trypsin solution (Promega: Cat. No. V5113) was added. The resultant was reacted at 37° C. for 1, 2, 4, 6 or 20 hours, and then the reaction was stopped by adding 1200 μl of 71.5% ethanol (final 65%). The supernatant was collected by centrifugation at 15,000 rpm at 4° C. for 5 min and evaporation was carried out. The dried solids were dissolved in distilled water and the activity was measured.

Row | Substance | insulin secretion-promoting activity [1] | cyclic AMP production activity [2] | activity before and after trypsin treatment (trypsin resistance) [3] | insulin secretion-promoting activity at high concentration ([1]; high concentration) | peak value of blood glucose increase / hypoglycemic action [4] | variation in activity by trypsin treatment (trypsin resistance) [3] | DPP-IV resistance [5] | cyclic AMP production activity versus trypsin treatment time [6]
1 | GLP-1 (7-36 amide) (HAEGTFTSDVSSYLEGQAAKEFIAWLVKGR-NH2) [native GLP-1, made by solid phase synthesis, reference compound] | Amount-dependent insulin secretion-promoting activity |  |  |  |  |  |  | 
2 | HAEGTFTSDVSSYLEGQAAQEFIAWLVNGR-NH2 [[Gln^26, Asn^34]-GLP-1 (7-36 amide)] |  | same level of cyclic AMP production activity as native GLP-1 | no difference of activity before and after trypsin treatment |  |  |  |  | 
3 | HSEGTFTSDVSSYLEGQAAQEFIAWLVNGR-OH [[Ser^8, Gln^26, Asn^34]-GLP-1 (7-36), [Ser^8, Gln^26, Asn^34]-GLP-1 (7-36)] | Amount-dependent insulin secretion-promoting activity |  |  | strong insulin secretion-promoting activity | strong action | no variation in activity by trypsin treatment | obvious DPP-IV resistance | 
4 | [Ser^8, Gln^26, Asp^34]-GLP-1 (7-36) | Amount-dependent insulin secretion-promoting activity |  |  |  |  | no variation in activity by trypsin treatment | obvious DPP-IV resistance | the activity was maintained regardless of the trypsin treatment time
